How the values were obtained:
Assay type in all cases: cell-based
[1] = biological target: T1, human CCR2 (Homo sapiens, UniProt P41597); test: Functional Ca2+ release test (B-1); details: Chem-1 cell line transfected with human CCR2; 50% inhibition of the MCP-1 effect, MCP-1 at EC50 (about 5 nM); in some cases means of several determinations
T1 construct: host or cells: Chem-1 cell line
T1 sequence (P41597 1-360 isoform P41597-2): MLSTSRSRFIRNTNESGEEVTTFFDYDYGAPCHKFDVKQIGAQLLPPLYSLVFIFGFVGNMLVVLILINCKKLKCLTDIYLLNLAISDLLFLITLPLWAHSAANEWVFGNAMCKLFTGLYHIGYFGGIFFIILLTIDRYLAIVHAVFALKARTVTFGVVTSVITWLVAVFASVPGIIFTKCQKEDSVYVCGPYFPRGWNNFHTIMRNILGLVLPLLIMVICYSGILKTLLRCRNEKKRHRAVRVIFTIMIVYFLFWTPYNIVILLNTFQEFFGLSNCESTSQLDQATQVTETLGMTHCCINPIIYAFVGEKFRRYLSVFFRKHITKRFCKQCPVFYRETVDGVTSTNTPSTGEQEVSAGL
Summary of the method: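 Chem-1 cells expressing human CCR2, loaded with Fluo-4 for 60 min at 37° C, were preincubated 10 min with compound (10-point, 1:3.16 dilutions), then stimulated with MCP-1 at its predetermined EC50 (about 5 nM). Ca2+ release was monitored for 120 s. IC50 came from a 4-parameter Hill fit.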

[2] = biological target: T2, murine CCR2 (Mus musculus, UniProt P51683); test: Functional β-arrestin recruiting test with human MCP-1 (B-2a); details: U2OS β-arrestin cell line transfected with murine CCR2; agonist human MCP-1 at EC50 (about 3 nM); in some cases means of several determinations
T2 construct: host or cells: U2OS β-arrestin cell line
T2 sequence (P51683 whole entry): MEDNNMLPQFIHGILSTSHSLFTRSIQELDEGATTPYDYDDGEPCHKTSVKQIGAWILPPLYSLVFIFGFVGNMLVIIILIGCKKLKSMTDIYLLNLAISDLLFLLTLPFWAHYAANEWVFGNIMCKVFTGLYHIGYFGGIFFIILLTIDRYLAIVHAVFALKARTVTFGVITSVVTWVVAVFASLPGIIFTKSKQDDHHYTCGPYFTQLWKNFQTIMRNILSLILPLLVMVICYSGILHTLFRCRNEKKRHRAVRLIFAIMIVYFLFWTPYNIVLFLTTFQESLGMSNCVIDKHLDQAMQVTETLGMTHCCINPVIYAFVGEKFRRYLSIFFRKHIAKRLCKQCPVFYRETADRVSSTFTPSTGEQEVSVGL
Summary of the method: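 Antagonist mode in U2OS cells expressing murine CCR2, read by PathHunter β-galactosidase complementation luminescence. Cells pre-incubated 10 min with 10-point compound dilutions (1:3.16 steps), then stimulated with human MCP-1 at its EC50 (usually about 3 nM) for 90 min at 37° C.; IC50 from 4-parameter logistic fit.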

[3] = biological target: T2, murine CCR2; test: Functional β-arrestin recruiting test with murine MCP-1 (B-2b); details: U2OS β-arrestin cell line transfected with murine CCR2; agonist murine MCP-1; in some cases means of several determinations
Summary of the method: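 In a PathHunter β-galactosidase complementation assay, U2OS cells expressing murine CCR2 were preincubated 10 min with compound (10-point, 1:3.16 dilutions), then challenged with murine MCP-1 at its predetermined EC50 for 90 min at 37 °C. Luminescence was read after 60 min, and IC50 was fitted with a 4-parameter Hill function.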

Compound | IC50 [1] | IC50 [2] | IC50 [3]
5-(3,4-dichlorobenzyl-2-(3-methoxypyridin-2-yl)-6-(trifluoromethyl)pyrimidin-4(3H)-one [Example 23] | 0.4 nM | 25 nM | 135 nM
O=c1[nH]c(-c2ccccn2)nc(C(F)(F)F)c1Oc1ccc(F)c(Cl)c1 [Example 2, 5-(3-chloro-4-fluorophenoxy)-2-(pyridin-2-yl)-6-(trifluoromethyl)pyrimidin-4(3H)-one] | 4.5 nM | 88 nM | 1040 nM
O=c1[nH]c(-c2ccccn2)nc(C(F)(F)F)c1Oc1ccc(Cl)c(Cl)c1 [Example 3, 5-(3,4-dichlorophenoxy)-2-(pyridin-2-yl)-6-(trifluoromethyl)pyrimidin-4(3H)-one] | 1.2 nM | 31 nM | 205 nM
O=c1[nH]c(-c2ncc(F)cc2F)nc(C(F)(F)F)c1Oc1ccc(Cl)c(Cl)c1 [Example 4, 5-(3,4-dichlorophenoxy)-2-(3,5-difluoropyridin-2-yl)-6-(trifluoromethyl)pyrimidin-4(3H)-one] | 2.9 nM | 87 nM | 380 nM
O=c1[nH]c(-c2ncccc2Cl)nc(C(F)(F)F)c1Oc1ccc(Cl)c(Cl)c1 [Example 5, 2-(3-chloropyridin-2-yl)-5-(3,4-dichlorophenoxy)-6-(trifluoromethyl)pyrimidin-4(3H)-one] | 1 nM | 13 nM | 50 nM
Cc1ccc(-c2nc(C(F)(F)F)c(Oc3ccc(Cl)c(Cl)c3)c(=O)[nH]2)nc1 [Example 7, 5-(3,4-dichlorophenoxy)-2-(5-methylpyridin-2-yl)-6-(trifluoromethyl)pyrimidin-4(3H)-one] | 2.2 nM | 120 nM | 435 nM
O=c1[nH]c(-c2ncccc2Cl)nc(C(F)(F)F)c1Oc1ccc(Cl)c(F)c1 [Example 11, 5-(4-chloro-3-fluorophenoxy)-2-(3-chloropyridin-2-yl)-6-(trifluoromethyl)pyrimidin-4(3H)-one] | 4.3 nM | 28 nM | 194 nM
O=c1[nH]c(-c2ncccc2Cl)nc(C(F)(F)F)c1Oc1ccc(F)c(Cl)c1 [Example 14, 5-(3-chloro-4-fluorophenoxy)-2-(3-chloropyridin-2-yl)-6-(trifluoromethyl)pyrimidin-4(3H)-one] | 11 nM | 25 nM | 260 nM
O=c1[nH]c(-c2ncccc2F)nc(C(F)(F)F)c1Oc1ccc(Cl)c(Cl)c1 [Example 15, 5-(3,4-dichlorophenoxy)-2-(3-fluoropyridin-2-yl)-6-(trifluoromethyl)pyrimidin-4(3H)-one] | 2 nM | 30 nM | 144 nM
O=c1[nH]c(-c2ncccc2Cl)nc(C(F)(F)F)c1Cc1ccc(Cl)c(Cl)c1 [Example 16, 2-(3-chloropyridin-2-yl)-5-(3,4-dichlorobenzyl)-6-(trifluoromethyl)pyrimidin-4(3H)-one] | 2.1 nM | 21 nM | 307 nM
O=c1[nH]c(-c2ncccc2F)nc(C(F)(F)F)c1Cc1ccc(Cl)c(Cl)c1 [Example 17, 5-(3,4-dichlorobenzyl)-2-(3-fluoropyridin-2-yl)-6-(trifluoromethyl)pyrimidin-4(3H)-one] | 1.4 nM | 43 nM | 191 nM
COc1cccnc1-c1nc(C(F)(F)F)c(Oc2ccc(Cl)c(Cl)c2)c(=O)[nH]1 [Example 24, 5-(3,4-dichlorophenoxy)-2-(3-methoxypyridin-2-yl)-6-(trifluoromethyl)pyrimidin-4(3H)-one] | 0.4 nM | 8.2 nM | 54 nM
O=c1[nH]c(-c2ncccc2Cl)nc(C(F)(F)F)c1Cc1ccc(Cl)c(C(F)(F)F)c1 [Example 35, 2-(3-chloropyridin-2-yl)-5-[4-chloro-3-(trifluoromethyl)benzyl]-6-(trifluoromethyl)pyrimidin-4(3H)-one] | 1.5 nM | 35 nM | 160 nM
COc1ncccc1-c1nc(C(F)(F)F)c(Oc2ccc(Cl)c(C(F)(F)F)c2)c(=O)[nH]1 [Example 37, 5-[4-chloro-3-(trifluoromethyl)phenoxy]-2-(2-methoxypyridin-3-yl)-6-(trifluoromethyl)pyrimidin-4(3H)-one] | 0.9 nM | 40 nM | 122 nM
O=c1[nH]c(-c2ncccc2Cl)nc(C(F)(F)F)c1Oc1ccc(Cl)c(C(F)(F)F)c1 [Example 38, 2-(3-chloropyridin-2-yl)-5-[4-chloro-3-(trifluoromethyl)phenoxy]-6-(trifluoromethyl)pyrimidin-4(3H)-one] | 0.3 nM | 5.1 nM | 8.9 nM
O=c1[nH]c(-c2ncccc2F)nc(C(F)(F)F)c1Oc1ccc(Cl)c(C(F)(F)F)c1 [Example 39, 5-[4-chloro-3-(trifluoromethyl)phenoxy]-2-(3-fluoropyridin-2-yl)-6-(trifluoromethyl)pyrimidin-4(3H)-one] | 0.9 nM | 20 nM | 50 nM
COc1cccnc1-c1nc(C(F)(F)F)c(Oc2ccc(Cl)c(C(F)(F)F)c2)c(=O)[nH]1 [Example 40, 5-[4-chloro-3-(trifluoromethyl)phenoxy]-2-(3-methoxypyridin-2-yl)-6-(trifluoromethyl)pyrimidin-4(3H)-one] | 0.8 nM | 12 nM | 44 nM
COc1ncccc1-c1nc(C(F)(F)F)c(Oc2ccc(Cl)c(Cl)c2)c(=O)[nH]1 [Example 42] | 1.5 nM | 44 nM | 812 nM
Nc1cccc(-c2nc(C(F)(F)F)c(Oc3ccc(Cl)c(C(F)(F)F)c3)c(=O)[nH]2)n1 [Example 44, 2-(6-aminopyridin-2-yl)-5-[4-chloro-3-(trifluoromethyl)phenoxy]-6-(trifluoromethyl)pyrimidin-4(3H)-one] | 2.2 nM | 74 nM | 222 nM
Cc1nc(Cc2nc(C(F)(F)F)c(Cc3ccc(Cl)c(Cl)c3)c(=O)[nH]2)cs1 [Example 174, 5-(3,4-dichlorobenzyl)-2-[(2-methyl-1,3-thiazol-4-yl)methyl]-6-(trifluoromethyl)pyrimidin-4(3H)-one] | 150 nM | 1100 nM | –
O=c1[nH]c(N2CCCC2)nc(C(F)(F)F)c1Cc1ccc(Cl)c(Cl)c1 [Example 175, 5-(3,4-dichlorobenzyl)-2-(pyrrolidin-1-yl)-6-(trifluoromethyl)pyrimidin-4(3H)-one] | 360 nM | 1400 nM | –
CCOC(=O)C1CCN(c2nc(C(F)(F)F)c(Cc3ccc(Cl)c(Cl)c3)c(=O)[nH]2)CC1 [Example 176, ethyl 1-[5-(3,4-dichlorobenzyl)-6-oxo-4-(trifluoromethyl)-1,6-dihydropyrimidin-2-yl]piperidine-4-carboxylate] | 45 nM | 460 nM | –
COc1ccc2nc(-c3nc(C(F)(F)F)c(Oc4ccc(Cl)c(Cl)c4)c(=O)[nH]3)ccc2c1 [Example 177, 5-(3,4-dichlorophenoxy)-2-(6-methoxyquinolin-2-yl)-6-(trifluoromethyl)pyrimidin-4(3H)-one] | 51 nM | 1500 nM | –
O=c1[nH]c(-c2ccc3ccccc3n2)nc(C(F)(F)F)c1Oc1ccc(Cl)c(Cl)c1 [Example 178] | 33 nM | 535 nM | –
O=c1[nH]c(NC2CCOC2)nc(C(F)(F)F)c1Oc1ccc(Cl)c(Cl)c1 (stereo not drawn) [Example 245] | 160 nM | 1400 nM | –
CCOC(=O)c1nc(-c2nc(C(F)(F)F)c(Oc3ccc(Cl)c(Cl)c3)c(=O)[nH]2)no1 [Example 260, Ethyl 3-[5-(3,4-dichlorophenoxy)-6-oxo-4-(trifluoromethyl)-1,6-dihydropyrimidin-2-yl]-1,2,4-oxadiazole-5-carboxylate x N,N-diisopropylethylamine] | 13 nM | 120 nM | –
O=c1[nH]c(CN2CCOCC2)nc(C(F)(F)F)c1Cc1ccc(Cl)c(Cl)c1 [Example 261, 5-(3,4-Dichlorobenzyl)-2-(morpholin-4-ylmethyl)-6-(trifluoromethyl)pyrimidin-4(3H)-one] | 360 nM | 630 nM | –
Cn1nc(Cc2nc(C(F)(F)F)c(Cc3ccc(Cl)c(Cl)c3)c(=O)[nH]2)[nH]c1=O [Example 263, 5-(3,4-Dichlorobenzyl)-2-[(1-methyl-5-oxo-4,5-dihydro-1H-1,2,4-triazol-3-yl)methyl]-6-(trifluoromethyl)pyrimidin-4(3H)-one] | 180 nM | 680 nM | –

From patent US20160237059A1, “HETEROCYCLIC SUBSTITUTED TRIFLUOROMETHYL PYRIMIDINONES AND THEIR USE” (BAYER PHARMA AKTIENGESELLSCHAFT, priority 2013, published 2016)
